Source: patent US20240366602A1, “COMBINATION THERAPY OF APELIN RECEPTOR AGONIST AND GLP-1 RECEPTOR AGONIST FOR TREATING A DISEASE OR CONDITION ASSOCIATED WITH WEIGHT GAIN” (BioAge Labs, Inc., priority 2023, published 2024)

Tests used:
Diet-Induced Obese Mice = assay: Combination of BAL-1480 and tirzepatide in obese mice (Example 6); assay type: in vivo
Excerpt: To measure the effect of another APJ agonist, BAL-1480, compound 13 as described by Narayanan et al. in J. Med. Chem. 2021, 64, 3006-3025, on weight loss or body composition in Diet-Induced Obese Mice by GLP-1 receptor agonist tirzepatide.
Measurement used and justifications include: body weight, food intake, water intake, non-fasted blood glucose, and body composition by Echo-MRI.
C57BL/6 obese male mice from Jax and housed to 9-months old were fed with a lean control diet D12450B (10 kcal % fat) and a diet-induced obesity (DIO) diet D12492 (60 kcal % fat) (Research Diets, Inc.).
Male DIO mice were acclimated to a single house cage for two weeks. Body weight, morning non-fasted blood glucose, and body composition were measured for randomization. Target DIO weight range at randomization 51.4-67.5 g. After randomization, mice were given treatment as the following groups (All groups were paired with relative dosing s.c. vehicle (20 mM citrate buffer at pH 7.0, 4 mL/kg) or drinking water with addition of 5 mM Sucralose (5 mM Sucralose, pH 3) to insure water consumption despite possible taste alterations from drug).
Study groups • 0. Lean ctrl, n=7 • 1. DIO+VEH (vehicle), n=7 • 2. DIO+BAL-1480 (0.25 g/L in drug water), n=7 • 3. DIO+BAL-1480 (1 g/L in drug water), n=7 • 4. DIO+tirzepatide (10 nmol/kg), n=7 • 5. DIO+tirzepatide (10 nmol/kg)+BAL-1480 (0.25 g/L in drug water), n=7 • 6. DIO+tirzepatide (10 nmol/kg)+BAL-1480 (1 g/L in drug water), n=7
(0) Lean control: age matched lean mice control (5 mM sucralose water+vehicle, s.c., every 3 days); (1) DIO+VEH: diet-induced obese mice treated with vehicle control (5 mM sucralose water, pH 3+vehicle, s.c., every 3 days); (2) DIO+BAL-1480 (0.25 g/L in drug water): diet-induced obese mice treated with BAL-1480 at 0.25 g/L; (3) DIO+BAL-1480 (1 g/L in drug water): diet-induced obese mice treated with BAL-1480 at 1 g/L; (4) DIO+tirzepatide (10 nmol/kg): diet-induced obese mice treated with tirzepatide at 10 nmol/kg, s.c., every 3 days+5 mM sucralose water, pH 3; (5) DIO+tirzepatide (10 nmol/kg)+BAL-1480 (0.25 g/L in drug water): diet-induced obese mice treated with tirzepatide at 10 nmol/kg in combination with BAL-1480 at 0.25 g/L; (6) DIO+tirzepatide (10 nmol/kg)+BAL-1480 (1 g/L in drug water): diet-induced obese mice treated with tirzepatide at 10 nmol/kg in combination with BAL-1480 at 1 g/L.
Tirzepatide (hydrochloride) was purchased from MCE (Cat No. HY—P1731B/CS-0107005). Mw=4849.91, 10 nmol/kg=0.0485 mg/kg, 4 mL/kg, drug concentration: 0.012 mg/mL in s.c. vehicle, every 3 days. BAL-1480 0.25 g/L or 1 g/L was prepared in drinking water with 5 mM Sucralose, pH 3.
Body weight, food intake, water intake, body composition and morning non-fasted blood glucose were measured during the entire study. After 20 days of treatment and measurement, mice were taken down to harvest tissues for further downstream analysis. On the day of necropsy, blood plasma and organ/tissue samples were collected. Tissue samples were weighed and processed for further tests. Terminal cardiac blood samples (Heparin plasma) were obtained.
Data were expressed as mean±SEM and statistically analyzed by 1-way or 2-way ANOVA

[1] = tested on: Diet-Induced Obese (DIO) mice; assay: Pilot study of BGE-105 in aged DIO mice treated with semaglutide (Example 1); assay type: in vivo
Excerpt: Endpoints and measurements used to assess effects included: • Body Weight, Clinical Evaluation & Body Condition Score; • Group Food Intake, Water Intake; • Fed Glucose; • Body composition by Echo-MRI; • Baseline and endpoint grid hang tests; and • Endpoint tissue harvest.
25-month-old (aged) C57BL/6 female mice were used in this study. Diet for 25-month-old C57BL/6 mice included lean control D12450B (10 kcal % fat), or a diet induced-obesity (DIO) diet D12492 (60 kcal % fat) (Research Diets, Inc.). The study duration was 37 days. Treatment started on Day 0 and ended on Day 35-36.
Semaglutide was purchased from MCE (Cat No. HY-114118/CS-0069903)
Mice from all Groups (1-5) were measured with fed glucose, and body weight and body composition for randomization.
Body weight, group food intake, group water intake, body composition and grid hang tests were measured and monitored during the study.
On the day of necropsy, blood plasma and tissue samples were collected.

[2] = BAL-1480 monotherapy 1 g/L, both combination groups, vs tirzepatide monotherapy

## COc1cccc(OC)c1-c1cc(C(=O)N[C@@H](CCN2CCCCC2)CC(=O)NC2CCC2)nn1C1CCCC1 [BAL-1480]
Diet-Induced Obese Mice; BAL-1480 1 g/L and combination groups vs tirzepatide monotherapy
  Fatty liver weight and fat tissue weights at terminal harvest: reduced the fatty liver weight and fat tissue weights
Diet-Induced Obese Mice; BAL-1480 1 g/L and combination groups, to similar level as lean control mice
  Muscle to body weight percentages at terminal harvest: dramatically increased the muscle to body weight percentages
Diet-Induced Obese Mice; [2]
  Fat mass percentage: significant decrease of fat mass percentage
  Lean mass percentage: significant increase of lean mass percentage
  Lean/fat ratio: significant increase of lean/fat ratio
Diet-Induced Obese Mice; BAL-1480 monotherapy 1 g/L, combinations tirzepatide 10 nmol/kg + BAL-1480 0.25 or 1 g/L, vs tirzepatide monotherapy
  Absolute fat mass: significant reduction of absolute fat mass
Diet-Induced Obese Mice; obese mice, BAL-1480 0.25 and 1 g/L in drinking water
  Weight loss: dose-dependent effect on weight loss

## semaglutide [reference compound]
[1]; semaglutide 100 nmol/kg, BGE-105 1.1 mg/mL, combination compared to either agent alone
  Muscle function, grid hang test (latency before mice fell from the grid): increased muscle function
[1]; semaglutide 100 nmol/kg, BGE-105 1.1 mg/mL, combination loss statistically significant
  Weight of perigonadal fat at study endpoint: statistically insignificant loss in perigonadal fat
[1]; semaglutide 100 nmol/kg, BGE-105 1.1 mg/mL, vs DIO control mice
  Quadriceps weight as a percentage of total body weight at study endpoint: increased quadricep weight as a percentage of total body weight, but the increases did not achieve statistical significance
[1]; vs DIO control mice
  neutrophil gelatinase-associated lipocalin (NGAL) level at study endpoint: decreased plasma NGAL level
